# Data published in patent EP4125996B1, “EZRIN PEPTIDE 1 FOR USE IN A METHOD OF TREATING COVID-19” (priority 2020, dated 2024).
# Ends that are not written are not given here.
# How the values were obtained:
# SARS-CoV-2 = test: Case reports: subcutaneous Ezrin peptide 1 in patients with COVID-19; type: in vivo, humans
# J-96 Human Cell Line = settings: cell cultures; R. Ataullakhanov et al. 2005; cited from earlier work
# [1] = high dosages of 50 mg per kg body weight per day or higher; no test or source given; cited from earlier work
sequence,measurement,setting,value
"TEKKRRETVEREKE [Ezrin peptide 1, NH2_Thr-Glu-Lys-Lys-Arg-Arg-Glu-Thr-Val-Glu-Arg-Glu-Lys-Glu_COOH]",Course of Disease (symptoms),"SARS-CoV-2; Example 1, patient, 0.2 mg s.c. daily, 15.03.2020, 2nd administration",increasing symptoms
same,Course of Disease (symptoms),"SARS-CoV-2; Example 1, 0.2 mg s.c. daily, 16.03.2020, 3rd administration",increasing symptoms with strong eye pain
same,Course of Disease (symptoms),"SARS-CoV-2; Example 1, 0.2 mg s.c. daily, 17.03.2020, 4th administration",increasing symptoms with more cough
same,Course of Disease (symptoms),"SARS-CoV-2; Example 1, 0.2 mg s.c. daily, 18.03.2020, 5th administration","significant signs of recovery, no eye pain, decreasing fever"
same,Course of Disease (symptoms),"SARS-CoV-2; Example 1, 0.2 mg s.c. daily, 19.03.2020, 6th administration","significant signs of recovery, normal body temperature, no fatigue"
same,Course of Disease (symptoms),"SARS-CoV-2; Example 1, 0.2 mg s.c. daily, 20.03.2020, 7th administration","return of taste, good general condition"
same,Course of Disease (symptoms),"SARS-CoV-2; Example 1, 0.2 mg s.c. daily, 21.03.2020, 8th administration",no signs of illness anymore
same,course of the disease (duration),"SARS-CoV-2; Example 1, compared with the course expected for patients of this risk group",significantly shorter
same,severity of symptoms after administration,"SARS-CoV-2; Example 1, compared with what is expected in a patient of this risk group",significantly lower
same,body temperature,"SARS-CoV-2; Example 2, patient, 2 mg s.c. per dose, 25.04.2020 in the morning, second dose",37.5 °C
same,body temperature,"SARS-CoV-2; Example 2, 2 mg s.c., 25.04.2020 in the evening",39.0 °C
same,Course of Disease (symptoms),"SARS-CoV-2; Example 2, 2 mg s.c., 25.04.2020, second dose","still general weakness, shortness of breath, cough, loss of appetite"
same,body temperature,"SARS-CoV-2; Example 2, 2 mg s.c., 26.04.2020 in the evening",37.5 °C
same,Course of Disease (symptoms),"SARS-CoV-2; Example 2, 2 mg s.c., 26.04.2020, third administration","Still loss of appetite, slight cough"
same,body temperature,"SARS-CoV-2; Example 2, 2 mg s.c., 27.04.2020",37.4 °C
same,Course of Disease (symptoms),"SARS-CoV-2; Example 2, 2 mg s.c., 27.04.2020, fourth dose","Slight cough, slight headache"
same,body temperature,"SARS-CoV-2; Example 2, 2 mg s.c., 28.04.2020",37.3 °C
same,Course of Disease (symptoms),"SARS-CoV-2; Example 2, 2 mg s.c., 28.04.2020, fifth administration","Only slight pain of touching the scalp, still slight weakness"
same,Course of Disease (symptoms),"SARS-CoV-2; Example 2, 2 mg s.c., 30.04.2020, sixth administration","Significant improvement of clinical symptoms, normal temperature"
same,Course of Disease (symptoms),"SARS-CoV-2; Example 2, 01. to 04.05.2020, after six doses, antibiotic coverage due to increased CRP level","taste completely returned, no more cough, no more fever, clinical well-being"
same,Course of Disease (symptoms),"SARS-CoV-2; Example 3, patient, 2 mg/d then 0.2 mg/d for four days s.c., 25.12.2020 (therapy begun 23.12.2020)",significant improvement of cough and general condition
same,Course of Disease (symptoms),"SARS-CoV-2; Example 3, after completion of HEP-1 therapy",No further symptoms
same,Course of Disease (symptoms),"SARS-CoV-2; Example 4, patient, 2 mg/d for two days then 0.2 mg/d for four days s.c., 25.12.2020 (therapy begun 23.12.2020)",significant improvement of cough and general condition
same,Course of Disease (symptoms),"SARS-CoV-2; Example 4, after completion of HEP-1 therapy",No further symptoms
same,Course of Disease (symptoms),"SARS-CoV-2; Example 5, patient, 2 mg/d for two days then 0,2 mg/d for four days s.c., 26.12.2020 (therapy begun 23.12.2020)",significant improvement of symptoms
same,Course of Disease (symptoms),"SARS-CoV-2; Example 5, after completion of the initial HEP-1 therapy","No further symptoms after completion of HEP-1 therapy until 13.01.2021, then severe shortness of breath"
same,Course of Disease (shortness of breath),"SARS-CoV-2; Example 5, after subsequent 0,2 mg/d s.c. for fourteen days from 15.01.2021",No further shortness of breath
same,Course of Disease (symptoms),"SARS-CoV-2; Example 6, patient, 0.2 mg/d s.c. for ten days from 10.12.2020, 14.12.2020",significant improvement of symptoms
same,Course of Disease (symptoms),"SARS-CoV-2; Example 6, 0.2 mg/d s.c. for ten days, 20.12.2020",complete recovery of symptoms
same,anti-viral effect,J-96 Human Cell Line,has shown an anti-viral effect
same,toxicity,[1],not toxic
